For test [1], the system named is carrageenan-induced paw edema in mice. Briefly: Carrageenan paw edema model in mice. Type of test: in vivo, mouse. The note with it: C57BL/6 mice, compared with vehicle control group. From the text: Inflammation models induced by carrageenan are frequently used acute inflammation models. Carrageenan (Cg) is a strong chemical agent that functions in stimulating the release of inflammatory and proinflammatory mediators, including bradykinin, histamine, tachykinins, reactive oxygen, and nitrogen species. Typical signs of inflammation include edema, hyperalgesia, and erythema, which develop immediately following the treatment of carrageenan. This example evaluated the effect of AAV-mediated gene delivery of Lanadelumab on carrageenan-induced paw edema in mice.
In total eighty young adult (8-9 weeks old) male C57BL/6 mice were used for this study. Paw edema was induced by a single subcutaneous (s.c.) injection of 30 μL of 0.7% or 1% carrageenan solution. […] Paw volume was measured using a digital Plethysmometer prior to carrageenan injection, and at 2, 4, 6, 8, 24 and 48 hours after injection. All animals were sacrificed 48 hours after carrageenan injection. Liver and paw specimens were also collected at the necropsy.
On the technique in general: The carrageenan paw model is a standard test of acute inflammation.

In test [2] the target is activated human plasma kallikrein (Enzyme Research Laboratories) (human) (UniProt P03952). The test is described as follows: cell-based or functional assay.

For the molecule `O=C(O)Cc1ccccc1Nc1c(Cl)cccc1Cl` [diclofenac, Diclofenac], the “paw volume after carrageenan injection” value is “significant decrease on paw volume was observed only at 4 and 24 hours” in test [1] (0.7% Cg model); “significantly decreased the paw volume at 2, 4, 6, 8 and 24 hours” in test [1] (1.0% Cg model).

B1: Lanadelumab (GenScript), purified IgG (antibody, V domains shown)
VH: EVQLLESGGGLVQPGGSLRLSCAASGFTFSHYIMMWVRQAPGKGLEWVSGIYSSGGITVYADSVKGRFTISRDNSKNTLYLQMNSLRAEDTAVYYCAYRRIGVPRRDEFDIWGQGTMVTVSS
VL: DIQMTQSPSTLSASVGDRVTITCRASQSISSWLAWYQQKPGKAPKLLIYKASTLESGVPSRFSGSGSGTEFTLTISSLQPDDFATYYCQQYNTYWTFGQGTKVEIKR
In test [2], B1 had a suppression of pKal activity (PFR-AMC fluorogenic kinetic enzymatic assay, antibody dose response) of 0.1 nM.

B2: vectorized lanadelumab (AAV8 ApoE.hAAT.L02-derived) in serum, or in total IgG purified from serum, of treated C57BL/6 mice (antibody, V domains shown)
VH: B1 VH
VL: B1 VL
In test [2], B2 came in with a percent reduction in pKal activity (serum diluted 1:25, day 49 post-administration vs day -7; PFR-AMC assay) of 50%.

Values taken from patent publication US20220195462A1, “FULLY-HUMAN POST-TRANSLATIONALLY MODIFIED ANTIBODY THERAPEUTICS” (REGENXBIO INC., priority 2019, published 2022).
